Results from PMC5712561 (Frontiers in Oncology, 2017).
Read-outs that look alike come from different tables or passages of the source.

Key:
EGFR wild type [1] = biological target: EGFR wild type (Homo sapiens, UniProt P00533); test: Cell-free kinase inhibition assay (ADP-Glo), EGFR wild type; format: biochemical; conditions: recombinant EGFR wild type, poly-EY substrate
Experimental: (§1) Inhibition of tyrosine kinase signaling by the drug candidates identified was examined in a cell-free system by assessing the phosphorylation of a poly-EY (4:1 Glu, Tyr) peptide substrate (for EGFR) with recombinant kinases EGFR^wt, EGFR^L858R, or EGFR^L858R+T790M as described previously ([34]). Inhibition of the recombinant kinases by the drug candidates was evaluated by using the ADP-Glo Kinase assay kit according to the manufacturer’s instruction (Promega, Madison, WI, USA). […] Also, 5 µL of ADP-Glo reagent was then added and incubation continued at room temperature for another 40 min. Afterward, 10 µL of kinase detection reagent was added and the mixture was allowed to incubate at room temperature for 30 min, before the measurement of luminescence by GloMax 20/20 Luminometer (Promega).

EGFR wild type [2] = test: as above; format: biochemical; conditions: wild type IC50 versus L858R IC50
Experimental: as §1

PUMA = test: Western blot, induction of PUMA in HCC827 and H1975 cells; format: cell-based; conditions: H1975 compared with HCC827, result in words
BEAS-2B cells = test: Cytotoxicity in normal lung epithelial cell line BEAS-2B; format: cell-based, human; conditions: for reduced cell viability: BEAS-2B
Text: (§2) Two NSCLC cell lines carrying specific EGFR mutations (HCC827: EGFR sensitizing E746_A750 deletion; H1975: resistance-causing EGFR T790M secondary mutation) were purchased from American Type Culture Collection (ATCC; Manassas, VA, USA). A normal human lung epithelial cell line BEAS-2B was also obtained from ATCC to investigate the potential toxic effect of the tested drugs. HCC827, H1975, and BEAS-2B cells were maintained in RPMI1640 medium supplemented with 10% fetal bovine serum, 100-U/mL streptomycin sulfate, and 100-U/mL penicillin G sulfate, and incubated at 37°C in 5% CO2.
(§3) Growth inhibitory effects of various drug candidates on the cell lines were evaluated by the sulforhodamine B assay ([32]). Cells were seeded into 96-well tissue culture plates in 100 µL at a plating density of 3,000–5,000 cells/well, and allowed to incubate overnight. The cells were then treated with various drug candidates at a range of concentrations and allowed to incubate at 37°C in 5% CO2 for 72 h. Each drug concentration was tested in quadruplicate and controls were tested in replicates of eight.

EGFR phosphorylation = test: Western blot, EGFR autophosphorylation in HCC827 and H1975 cells; format: cell-based; conditions: H1975 compared with HCC827, 4 h, result in words
Experimental: (§4) Non-small cell lung cancer (HCC827, H1975) cell lines were treated with the tested drug candidates for the designated time (4 h). The cells were then harvested for Western blot analysis in lysis buffer (0.05-M HEPES pH 7.4, 0.15-M NaCl, 2-mM EDTA, 10% v/v glycerol, 1% v/v Triton X-100) supplemented with protease and phosphatase inhibitor cocktail (Thermo Scientific). Whole cell lysates were separated by SDS-PAGE and subjected to immunoblot analysis with the respective antibodies [total EGFR, phosphor-EGFR (Y845), phosphor-ERK1/2 (Thr177/Thr160), ERK1/2, phosphor-Akt, total Akt, and GAPDH (Santa Cruz Biotechnology, Santa Cruz, CA, USA)]. Primary antibody incubation was carried out at 4°C overnight in 5% bovine serum albumin/phosphate-buffered saline-Tween 20. Afterward, the membranes were incubated with HRP-conjugated donkey anti-mouse/anti-rabbit secondary antibody at room temperature for 1 h, and developed using the WesternBright Quantum chemiluminescence detection system (Advansta Corporation, Menlo Park, CA, USA). Anti-GAPDH antibody was used as the loading control (Santa Cruz Biotech, Santa Cruz, CA, USA). Digital chemiluminescence images were captured and quantified by using the FluorChem Q Imaging System (Alpha Innotech Corporation, Santa Clara, CA, USA).

H1975 cells [3] = test: Growth inhibition, sulforhodamine B assay, H1975; format: cell-based; conditions: for anticancer activity / effect on cell proliferation: H1975, result in words
Text: as §2, §3

EGFR L858R/T790M = EGFR L858R/T790M (Homo sapiens, UniProt P00533, L858R/T790M); test: Cell-free kinase inhibition assay (ADP-Glo), EGFR L858R/T790M; format: biochemical; conditions: for Fold difference from L858R value: L858R/T790M IC50 versus L858R IC50; for IC50: recombinant EGFR L858R/T790M, poly-EY substrate
Experimental: as §1

HCC827 cells = test: Growth inhibition, sulforhodamine B assay, HCC827; format: cell-based; conditions: for IC50: HCC827 (EGFR E746_A750 deletion), 72 h; for anticancer activity / effect on cell proliferation: HCC827, result in words
Text: as §2, §3

H1975 cells [4] = test: Annexin V apoptosis assay; format: cell-based; conditions: for induction of apoptosis: H1975, 48 h, result in words; for proportion of apoptotic cells: 48 h
Experimental: Cells were grown on a 60-mm tissue culture dish at a density of about 5.0 × 10^5 cells/well. […] At the end of the treatment, both floating and attached cells were collected and washed twice with ice-cold phosphate buffer solution. The extent of apoptosis was determined by using the APC annexin-V apoptosis kit (BD Bioscience, San Jose, CA, USA) according to the manufacturer’s instructions. Cells positive for both annexin V and 7-AAD were considered apoptotic.

[5] = system: phosphorylation of Akt and ERK; test: Western blot, phosphorylation of Akt and ERK in HCC827 and H1975 cells; format: cell-based; conditions: H1975 compared with HCC827, 4 h, result in words
Experimental: as §4

EGFR L858R = EGFR L858R (Homo sapiens, UniProt P00533, L858R); test: Cell-free kinase inhibition assay (ADP-Glo), EGFR L858R; format: biochemical; conditions: recombinant EGFR L858R, poly-EY substrate
Experimental: as §1

[6] = system: phosphorylation of EGFR, Akt, and ERK; test: Western blot, drug combination, phosphorylation of EGFR, Akt and ERK in H1975 cells; format: cell-based; conditions: H1975, gefitinib 10 µM, indacaterol 10 µM, alone or concomitant, 4 h, result in words
[7] = system: L858R/T790M EGFR-bearing NSCLC cells; conditions: L858R/T790M EGFR-bearing NSCLC cells ref 15; cited from earlier work
[8] = highest concentration tested 100 µM
[9] = H1975 (EGFR L858R/T790M), 72 h, read-out: IC50

Sequence of EGFR L858R (P00533 25-1210 L858R): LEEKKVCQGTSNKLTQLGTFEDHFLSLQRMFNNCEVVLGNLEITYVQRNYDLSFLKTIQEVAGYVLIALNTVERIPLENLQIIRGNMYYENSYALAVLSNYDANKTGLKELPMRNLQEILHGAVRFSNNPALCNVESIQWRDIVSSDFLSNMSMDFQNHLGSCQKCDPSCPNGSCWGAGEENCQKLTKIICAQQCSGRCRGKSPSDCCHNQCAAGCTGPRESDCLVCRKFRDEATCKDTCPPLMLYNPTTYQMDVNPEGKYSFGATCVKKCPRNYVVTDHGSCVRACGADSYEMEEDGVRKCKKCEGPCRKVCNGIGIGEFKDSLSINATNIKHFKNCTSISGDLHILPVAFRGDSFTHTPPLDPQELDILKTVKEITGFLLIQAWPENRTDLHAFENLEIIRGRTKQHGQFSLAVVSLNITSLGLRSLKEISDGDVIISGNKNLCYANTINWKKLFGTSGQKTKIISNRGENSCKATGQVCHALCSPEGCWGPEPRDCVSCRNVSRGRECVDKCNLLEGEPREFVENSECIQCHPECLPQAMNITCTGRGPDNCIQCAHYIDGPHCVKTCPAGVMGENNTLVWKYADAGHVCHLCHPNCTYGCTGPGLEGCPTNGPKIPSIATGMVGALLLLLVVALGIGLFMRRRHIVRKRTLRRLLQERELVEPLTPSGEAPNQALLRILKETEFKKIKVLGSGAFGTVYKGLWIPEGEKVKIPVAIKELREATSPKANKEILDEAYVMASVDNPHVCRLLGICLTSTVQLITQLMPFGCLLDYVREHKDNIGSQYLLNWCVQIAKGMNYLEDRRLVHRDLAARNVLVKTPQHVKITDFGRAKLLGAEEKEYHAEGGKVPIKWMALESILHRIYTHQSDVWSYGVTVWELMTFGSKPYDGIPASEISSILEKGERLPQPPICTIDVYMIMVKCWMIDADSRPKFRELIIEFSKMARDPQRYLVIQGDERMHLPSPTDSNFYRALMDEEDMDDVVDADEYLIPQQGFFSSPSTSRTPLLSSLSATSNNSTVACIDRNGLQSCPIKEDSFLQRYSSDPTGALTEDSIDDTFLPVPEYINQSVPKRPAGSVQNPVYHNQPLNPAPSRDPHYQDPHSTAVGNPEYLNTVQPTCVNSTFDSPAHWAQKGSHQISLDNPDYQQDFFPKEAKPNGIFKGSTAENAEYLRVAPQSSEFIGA
Sequence of EGFR wild type (Homo sapiens, UniProt P00533) (P00533 25-1210): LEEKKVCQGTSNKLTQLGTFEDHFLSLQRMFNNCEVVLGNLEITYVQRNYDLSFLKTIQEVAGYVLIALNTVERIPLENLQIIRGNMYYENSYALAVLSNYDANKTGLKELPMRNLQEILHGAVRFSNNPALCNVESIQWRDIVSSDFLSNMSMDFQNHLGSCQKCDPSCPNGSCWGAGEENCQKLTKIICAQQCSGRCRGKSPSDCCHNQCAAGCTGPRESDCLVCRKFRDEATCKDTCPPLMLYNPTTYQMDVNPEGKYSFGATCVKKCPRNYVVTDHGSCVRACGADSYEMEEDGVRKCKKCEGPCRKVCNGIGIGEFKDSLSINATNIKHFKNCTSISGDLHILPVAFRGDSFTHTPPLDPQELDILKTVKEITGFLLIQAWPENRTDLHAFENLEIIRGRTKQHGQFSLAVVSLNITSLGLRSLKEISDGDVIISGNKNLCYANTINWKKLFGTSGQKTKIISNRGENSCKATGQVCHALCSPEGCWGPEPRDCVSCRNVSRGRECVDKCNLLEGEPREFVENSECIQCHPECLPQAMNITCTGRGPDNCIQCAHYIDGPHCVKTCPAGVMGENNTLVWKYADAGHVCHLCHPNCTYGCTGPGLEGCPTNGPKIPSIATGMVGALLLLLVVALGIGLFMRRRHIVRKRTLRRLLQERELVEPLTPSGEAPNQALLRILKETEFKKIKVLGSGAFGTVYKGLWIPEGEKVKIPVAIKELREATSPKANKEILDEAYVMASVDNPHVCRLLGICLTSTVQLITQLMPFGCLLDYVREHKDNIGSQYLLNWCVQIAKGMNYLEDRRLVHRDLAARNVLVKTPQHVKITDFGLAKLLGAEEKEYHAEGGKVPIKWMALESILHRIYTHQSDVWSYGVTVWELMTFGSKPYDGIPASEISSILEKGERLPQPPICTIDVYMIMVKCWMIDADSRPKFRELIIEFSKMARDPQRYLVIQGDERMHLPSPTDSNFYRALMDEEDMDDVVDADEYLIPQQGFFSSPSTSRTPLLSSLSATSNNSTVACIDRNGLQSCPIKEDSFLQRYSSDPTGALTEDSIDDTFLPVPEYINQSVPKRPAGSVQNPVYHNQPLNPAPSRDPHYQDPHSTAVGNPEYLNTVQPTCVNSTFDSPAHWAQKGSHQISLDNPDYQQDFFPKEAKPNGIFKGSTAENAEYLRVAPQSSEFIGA
Sequence of EGFR L858R/T790M (P00533 25-1210 T790M/L858R): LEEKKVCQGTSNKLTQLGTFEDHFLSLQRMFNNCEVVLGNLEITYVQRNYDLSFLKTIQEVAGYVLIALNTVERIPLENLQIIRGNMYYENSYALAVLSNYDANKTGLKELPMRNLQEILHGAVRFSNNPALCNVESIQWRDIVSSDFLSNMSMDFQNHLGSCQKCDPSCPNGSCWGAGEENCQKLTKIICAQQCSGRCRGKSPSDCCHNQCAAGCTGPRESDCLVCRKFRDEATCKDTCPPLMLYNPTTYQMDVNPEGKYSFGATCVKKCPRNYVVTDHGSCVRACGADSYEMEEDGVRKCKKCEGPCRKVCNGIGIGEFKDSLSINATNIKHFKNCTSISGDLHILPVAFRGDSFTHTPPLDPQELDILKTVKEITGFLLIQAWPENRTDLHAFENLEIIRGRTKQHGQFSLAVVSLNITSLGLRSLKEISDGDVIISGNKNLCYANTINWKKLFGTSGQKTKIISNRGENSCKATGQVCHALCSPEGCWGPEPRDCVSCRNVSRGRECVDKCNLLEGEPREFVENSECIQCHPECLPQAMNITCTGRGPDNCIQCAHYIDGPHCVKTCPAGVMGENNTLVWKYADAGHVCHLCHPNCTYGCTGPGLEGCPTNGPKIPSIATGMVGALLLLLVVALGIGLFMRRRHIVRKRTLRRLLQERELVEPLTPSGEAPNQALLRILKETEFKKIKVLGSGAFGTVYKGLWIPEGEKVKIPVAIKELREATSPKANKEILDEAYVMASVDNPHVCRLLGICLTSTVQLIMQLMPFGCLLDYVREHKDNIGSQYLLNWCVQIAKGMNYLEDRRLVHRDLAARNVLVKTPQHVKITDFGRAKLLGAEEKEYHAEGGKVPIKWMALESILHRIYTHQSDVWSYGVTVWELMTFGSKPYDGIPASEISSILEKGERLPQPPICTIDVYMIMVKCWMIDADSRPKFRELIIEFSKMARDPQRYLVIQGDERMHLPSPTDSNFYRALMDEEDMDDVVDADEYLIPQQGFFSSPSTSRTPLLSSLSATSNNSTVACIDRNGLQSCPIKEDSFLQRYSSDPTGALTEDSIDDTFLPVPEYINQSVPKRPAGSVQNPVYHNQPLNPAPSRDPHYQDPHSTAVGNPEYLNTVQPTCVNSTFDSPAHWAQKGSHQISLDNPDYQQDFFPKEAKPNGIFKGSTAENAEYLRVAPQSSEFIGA

Structure (SMILES) | IC50 (EGFR wild type [1]) | Fold difference from L858R value (EGFR wild type [2]) | inhibition of EGFR phosphorylation (EGFR phosphorylation) | anticancer activity / effect on cell proliferation (H1975 cells [3]) | Fold difference from L858R value (EGFR L858R/T790M) | IC50 (EGFR L858R/T790M) | anticancer activity / effect on cell proliferation (HCC827 cells) | induction of apoptosis (H1975 cells [4]) | IC50 (EGFR L858R) | other results
Cc1ccc([C@@H]2O[C@H](CO)[C@@H](O)[C@H](O)[C@H]2O)cc1Cc1ccc(-c2ccc(F)cc2)s1 [Canagliflozin] | 795 ± 49.6 nM | 2.2 | more potently in H1975 than in HCC827 cells | exhibit anticancer activity | 0.7 | 261 ± 24.4 nM | exhibit anticancer activity | induce apoptosis in a concentration-dependent manner | 368 ± 29.6 nM | induction of PUMA (PUMA): more pronounced induction of PUMA in H1975 cells than in HCC827 cells; reduced cell viability (BEAS-2B cells; [8]): less than 20%; IC50 (H1975 cells [3]; [9]): 25.5 ± 3.1 µM; IC50 (HCC827 cells): 45.4 ± 2.9 µM; inhibition of phosphorylation of Akt and ERK [5]: more remarkably in H1975 than in HCC827
OCCN1CCN(CC/C=C2/c3ccccc3Sc3ccc(C(F)(F)F)cc32)CC1 [Cis-flupenthixol] | 186 ± 21.5 nM | 2.2 | similarly in both H1975 and HCC827 cells | exhibit anticancer activity | 1.1 | 94 ± 11.2 nM | exhibit anticancer activity | induce apoptosis in a concentration-dependent manner | 83 ± 5.2 nM | reduced cell viability (BEAS-2B cells; highest concentration tested 20 µM): less than 20%
C#Cc1cccc(Nc2ncnc3cc(OCCOC)c(OCCOC)cc23)c1 [Erlotinib] | – | – | – | – | – | – | – | – | – | IC50 (BEAS-2B cells; Homo sapiens, BEAS-2B normal lung epithelial cells): ~20 µM; IC50 (H1975 cells [3]; Homo sapiens, NCI-H1975, 72 h): 8.2 ± 2.1 µM
COc1cc2ncnc(Nc3ccc(F)c(Cl)c3)c2cc1OCCCN1CCOCC1 [Gefitinib] | – | – | – | – | – | – | – | – | – | proportion of apoptotic cells (H1975 cells [4]; H1975, gefitinib alone 4 µM): 6.9 ± 1.2%
CCc1cc2c(cc1CC)CC(NC[C@H](O)c1ccc(O)c3[nH]c(=O)ccc13)C2 [Indacaterol] | 792 ± 43.2 nM | 3.4 | more potently in H1975 than in HCC827 cells | exhibit anticancer activity | 0.4 | 103 ± 14 nM | exhibit anticancer activity | induce apoptosis in a concentration-dependent manner | 232 ± 36.5 nM | induction of PUMA (PUMA): more pronounced induction of PUMA in H1975 cells than in HCC827 cells; reduced cell viability (BEAS-2B cells; [8]): less than 20%; IC50 (H1975 cells [3]; [9]): ~14 µM; IC50 (H1975 cells [3]; Homo sapiens, NCI-H1975, 72 h, H1975 (EGFR L858R/T790M), 72 h, read-out: IC50): 14.3 ± 2.2 µM; IC50 (HCC827 cells; Homo sapiens): 41.5 ± 3.9 µM; proportion of apoptotic cells (H1975 cells [4]; H1975, indacaterol alone 5 µM): 9.7 ± 1.8%; inhibition of phosphorylation of EGFR, Akt, and ERK [6]: mildly; inhibition of phosphorylation of Akt and ERK [5]: more remarkably in H1975 than in HCC827
O=C(c1ccc(F)cc1)C1CCN(CCn2c(=O)[nH]c3ccccc3c2=O)CC1 [Ketanserin] | – | – | – | negative | – | – | negative | – | – | –
CCCc1nn(C)c2c(=O)[nH]c(-c3cc(S(=O)(=O)N4CCN(C)CC4)ccc3OCC)nc12 [Sildenafil] | – | – | – | negative | – | – | negative | – | – | –
C=CC(=O)Nc1cc(Nc2nccc(-c3cn(C)c4ccccc34)n2)c(OC)cc1N(C)CCN(C)C [osimertinib] | – | – | – | – | – | – | – | – | – | IC50 [7]: ~11 nM
